# Test results reported in patent US20130261130A1, “NEUROTRYPSIN INHIBITORS” (priority 2010, published 2013).
# Molecular target: T1, human neurotrypsin (Homo sapiens, UniProt P56730)
# T1 sequence (P56730 21-875): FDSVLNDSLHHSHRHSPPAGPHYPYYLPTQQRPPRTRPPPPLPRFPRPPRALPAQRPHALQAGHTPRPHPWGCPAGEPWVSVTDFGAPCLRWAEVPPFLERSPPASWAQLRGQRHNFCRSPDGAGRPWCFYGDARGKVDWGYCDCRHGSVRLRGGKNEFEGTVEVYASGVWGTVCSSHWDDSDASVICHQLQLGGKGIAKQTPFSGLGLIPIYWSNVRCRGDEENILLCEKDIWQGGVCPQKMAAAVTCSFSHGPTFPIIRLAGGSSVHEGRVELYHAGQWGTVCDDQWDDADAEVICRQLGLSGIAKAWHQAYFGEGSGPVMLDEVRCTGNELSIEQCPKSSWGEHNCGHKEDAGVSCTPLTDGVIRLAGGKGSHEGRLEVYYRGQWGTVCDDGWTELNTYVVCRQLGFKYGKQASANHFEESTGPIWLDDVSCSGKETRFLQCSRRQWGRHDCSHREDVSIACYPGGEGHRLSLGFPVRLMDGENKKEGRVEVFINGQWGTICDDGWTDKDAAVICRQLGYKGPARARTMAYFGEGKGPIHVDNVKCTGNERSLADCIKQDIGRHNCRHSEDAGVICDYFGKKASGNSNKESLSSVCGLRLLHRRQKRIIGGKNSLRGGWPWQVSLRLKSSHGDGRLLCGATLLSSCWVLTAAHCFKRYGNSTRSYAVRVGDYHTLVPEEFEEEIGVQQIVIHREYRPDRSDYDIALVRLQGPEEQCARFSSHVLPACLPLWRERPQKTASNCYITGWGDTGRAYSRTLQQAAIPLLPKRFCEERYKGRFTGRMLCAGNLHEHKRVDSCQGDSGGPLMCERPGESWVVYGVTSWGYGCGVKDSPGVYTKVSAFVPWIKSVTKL
# Test: Determination of IC50 for human neurotrypsin
# Format: biochemical
# Conditions: human neurotrypsin; method of WO 2006/1103261; read-out: Neurotrypsin IC50
# Procedure: Assessment of the potency of compounds of examples 1-311 in inhibiting the enzymatic activity of human neurotrypsin was performed according to the method described in patent application WO 2006/1103261
row,Compound,IC50 [µM]
1,2-(6-Chlorobenzo[b]-thiophene-2-carboxamido)-5-((5-chlorothiophen-2-yl-methyl)carbamoyl)benzoic acid [Example 107],4.8
2,4-(4-tert-Butoxyphenyl-carbamoyl)-3-(3-chloro-thiophene-2-carboxamido)-benzoic acid [Example 194],5.9
3,"5-(N-4-Butylphenyl-N-methyl-carbamoyl)-2-(4-(5,6-dichloro-1H-benzo[d]-imidazol-2-yl)benzamido)-benzoic acid [Example 44]",1.6
4,"O=C(Nc1ccc(Cl)cc1)c1ccc(C(=O)O)c(NC(=O)c2sc3ccccc3c2Cl)c1 [Example 1, 2-(3-Chlorobenzo[b]thiophene-2-carboxamido)-4-(4-chlorophenylcarbamoyl)-benzoic acid]",8.5
5,"O=C(Nc1ccc(Cl)cc1F)c1ccc(C(=O)O)c(NC(=O)c2sc3ccccc3c2Cl)c1 [Example 5, 2-(3-Chlorobenzo[b]-thiophene-2-carboxamido)-4-(4-chloro-2-fluoro-phenyl-carbamoyl)benzoic acid]",1.9
6,O=C(Nc1ccc(Cl)cc1)c1ccc(C(=O)O)c(NC(=O)c2cc3ccc(Cl)cc3s2)c1 [Example 23],2.6
7,"O=C(O)c1ccc(C(=O)N2CCC(Oc3ccccc3)CC2)cc1NC(=O)c1sc2ccccc2c1Cl [Example 28, 2-(3-Chlorobenzo[b]-thiophene-2-carboxamido)-4-(4-phenoxypiperidine-1-carbonyl)benzoic acid]",11.3
8,"O=C(N[C@@H]1C[C@H]2CC[C@@H]1C2)c1ccc(C(=O)O)c(NC(=O)c2sc3ccccc3c2Cl)c1 [Example 34, 4-((1R,2R,4S)-Bicyclo[2.2.1]-heptan-2-ylcarbamoyl)-2-(3-chlorobenzo[b]thiophene-2-carboxamido)benzoic acid]",14.1
9,"O=C(Nc1ccc(Cl)cc1)c1ccc(NC(=O)c2ccc(-c3nc4cc(Cl)ccc4[nH]3)cc2)c(C(=O)O)c1 [Example 37, 2-(4-(5-Chloro-1H-benzo[d]-imidazol-2-yl)benzamido)-5-(4-chlorophenylcarbamoyl)-benzoic acid]",1.6
10,"O=C(Nc1ccc(C(=O)N2CCC(c3ccc(F)cc3)CC2)cc1C(=O)O)c1ccc(-c2nc3cc(Cl)c(Cl)cc3[nH]2)cc1 [Example 38, 2-(4-(5,6-Dichloro-1H-benzo[d]imidazol-2-yl)-benzamido)-5-(4-(4-fluorophenyl)piperidine-1-carbonyl)benzoic acid]",4.8
11,"O=C(Nc1ccc(Cl)cc1)c1ccc(C(=O)O)c(NC(=O)c2ccc(-c3nc4cc(Cl)c(Cl)cc4[nH]3)cc2)c1 [Example 40, 4-(4-Chlorophenyl-carbamoyl)-2-(4-(5,6-di-chloro-1H-benzo[d]imidazol-2-yl)benzamido)benzoic acid]",0.8
12,"O=C(Nc1ccccc1F)c1ccc(NC(=O)c2ccc(-c3nc4cc(Cl)c(Cl)cc4[nH]3)cc2)c(C(=O)O)c1 [Example 48, 2-(4-(5,6-Dichloro-1H-benzo[d]imidazol-2-yl)-benzamido)-5-(2-fluoro-phenylcarbamoyl)benzoic acid]",3.4
13,"CN(CC1CCCCC1)C(=O)c1ccc(NC(=O)c2ccc(-c3nc4cc(Cl)c(Cl)cc4[nH]3)cc2)c(C(=O)O)c1 [Example 49, 5-(N-Cyclohexylmethyl-N-methylcarbamoyl)-2-(4-(5,6-dichloro-1H-benzo[d]-imidazol-2-yl)benzamido)-benzoic acid]",6.6
14,"O=C(Nc1nccs1)c1ccc(C(=O)O)c(NC(=O)c2sc3ccccc3c2Cl)c1 [Example 52, 2-(3-Chlorobenzo[b]thiophene-2-carboxamido)-4-(thiazol-2-ylcarbamoyl)-benzoic acid]",15.4

# Next, values leading:
row,IC50 [µM],Compound
1,9.7,"3-Chloro-N-(5-(5-chloro-1,3-thiazol-2-ylcarbamoyl)-2-(2H-tetrazol-5-yl)phenyl)benzo[b]-thiophene-2-carboxamide [Example 227]"
2,25.7,"O=C(Nc1ccc(Cl)cc1)c1ccc(C(=O)O)c(NC(=O)c2ccc(-c3ccccc3)s2)c1 [Example 9, 4-(4-Chlorophenyl-carbamoyl)-2-(5-phenyl-thiophene-2-carboxamido)-benzoic acid]"
3,8,"O=C(Nc1ccc(Cl)cn1)c1ccc(C(=O)O)c(NC(=O)c2sc3ccccc3c2Cl)c1 [Example 16, 2-(3-Chlorobenzo[b]-thiophene-2-carboxamido)-4-(5-chloropyridin-2-yl-carbamoyl)benzoic acid]"
4,8.3,"O=C(Nc1ccc(Cl)cc1)c1ccc(C(=O)O)c(NC(=O)c2sc3cc(Cl)ccc3c2Cl)c1 [Example 18, 4-(4-Chlorophenyl-carbamoyl)-2-(3,6-dichloro-benzo[b]thiophene-2-carboxamido)benzoic acid]"
5,4,"O=C(O)c1ccc(C(=O)N2CCC(Cc3ccccc3)CC2)cc1NC(=O)c1sc2ccccc2c1Cl [Example 24, 4-(4-Benzylpiperidine-1-carbonyl)-2-(3-chloro-benzo[b]thiophene-2-carboxamido)benzoic acid]"
6,> 150,"O=C(O)c1ccc(C(=O)Nc2ccc(Cl)cc2)c(NC(=O)c2ccc(-c3ccccc3)s2)c1 [Example 25, 4-(4-Chlorophenyl-carbamoyl)-3-(5-phenyl-thiophene-2-carboxamido)-benzoic acid]"
7,3.2,"O=C(Nc1ccc(Cl)cc1)c1ccc(NC(=O)c2sc3ccccc3c2Cl)c(C(=O)O)c1 [Example 26, 2-(3-Chlorobenzo[b]-thiophene-2-carboxamido)-5-(4-chlorophenylcarbamoyl)-benzoic acid]"
8,5,"O=C(Nc1ncc(Cl)s1)c1ccc(C(=O)O)c(NC(=O)c2ccc(-c3ccc(F)cc3)s2)c1 [Example 27, 4-(5-Chlorothiazol-2-yl-carbamoyl)-2-(5-(4-fluorophenyl)thiophene-2-carboxamido)benzoic acid]"
9,13.6,"O=C(NC1CCCc2ccccc21)c1ccc(C(=O)O)c(NC(=O)c2sc3ccccc3c2Cl)c1 (stereo not drawn) [Example 32, 2-(3-Chlorobenzo[b]-thiophene-2-carboxamido)-4-(1,2,3,4-tetrahydro-naphthalen-1-ylcarbamoyl)-benzoic acid]"
10,4.5,"O=C(NC12CC3CC(CC(C3)C1)C2)c1ccc(C(=O)O)c(NC(=O)c2sc3ccccc3c2Cl)c1 [Example 33, 2-(3-Chlorobenzo[b]-thiophene-2-carboxamido)-4-(adamantylcarbamoyl)-benzoic acid]"
11,3.2,"O=C(O)c1cc(C(=O)N2CCC(c3c(Cl)cccc3Cl)CC2)ccc1NC(=O)c1sc2ccccc2c1Cl [Example 35, 2-(3-Chlorobenzo[b]-thiophene-2-carboxamido)-5-(4-(2,6-dichlorophenyl)-piperidine-1-carbonyl)benzoic acid]"
12,3.5,"O=C(Nc1ccc(Cl)cc1)c1ccc(NC(=O)c2ccc(-c3nc4ccccc4[nH]3)cc2)c(C(=O)O)c1 [Example 36, 2-(4-(1H-Benzo[d]imidazol-2-yl)benzamido)-5-(4-chloro-phenylcarbamoyl)benzoic acid]"
13,4.4,"CC(C)CN(CC(C)C)C(=O)c1ccc(NC(=O)c2ccc(-c3nc4cc(Cl)c(Cl)cc4[nH]3)c(O)c2)c(C(=O)O)c1 [Example 42, 2-(4-(5,6-Dichloro-1H-benzo[d]imidazol-2-yl)-3-hydroxybenzamido)-5-(diisobutylcarbamoyl)benzoic acid]"
14,3.9,"CC(C)CCN(C)C(=O)c1ccc(NC(=O)c2ccc(-c3nc4cc(Cl)c(Cl)cc4[nH]3)cc2)c(C(=O)O)c1 [Example 43, 2-(4-(5,6-Dichloro-1H-benzo[d]imidazol-2-yl)-benzamido)-5-(N-isopentyl-N-methylcarbamoyl)benzoic acid]"
15,1.5,"CC(C)CN(C(=O)c1ccc(NC(=O)c2ccc(-c3nc4cc(Cl)c(Cl)cc4[nH]3)cc2)c(C(=O)O)c1)c1ccc(Cl)cc1 [Example 45, 5-(N-4-Chlorophenyl-N-isobutylcarbamoyl)-2-(4-(5,6-dichloro-1H-benzo[d]-imidazol-2-yl)benzamido)-benzoic acid]"
16,3.4,"CC(C)CN(CC(C)C)C(=O)c1ccc(NC(=O)c2ccc(-c3nc4cc(Cl)c(Cl)cc4n3C)cc2)c(C(=O)O)c1 [Example 46, 2-(4-(5,6-Dichloro-1-methyl-1H-benzo[d]imidazol-2-yl)benzamido)-5-(diisobutyl-carbamoyl)benzoic acid]"
17,0.5,"O=C(Nc1ccc(Cl)cc1F)c1ccc(NC(=O)c2ccc(-c3nc4cc(Cl)c(Cl)cc4[nH]3)cc2)c(C(=O)O)c1 [Example 51, 5-(4-Chloro-2-fluorophenyl-carbamoyl)-2-(4-(5,6-dichloro-1H-benzo[d]-imidazol-2-yl)benzamido)-benzoic acid]"
18,9,O=C(Nc1ncc(Cl)s1)c1ccc(C(=O)O)c(NC(=O)c2sc3ccccc3c2Cl)c1 [Example 59]
19,7.5,O=C(Nc1ncc(Cl)s1)c1ccc(C(=O)O)c(NC(=O)c2ccc(-c3ccccc3)s2)c1 [Example 62]
